Where two headings read alike, the source gives them in different places. Each block holds one compound with its values, some of them ahead of it.
Key:
[1] = tested on: M14 (amelanotic melanoma) cells; experiment: antiproliferation assay (72 h, CELLTITER 96), M14; type: cell-based, human
Procedure, shortened: (§1)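 Human M14 melanoma and NCI-H460 lung carcinoma cells in RPMI-1640/10% FBS, seeded at 5×10^2–5×10^4 cells/well and adhered overnight, then exposed to seven compound concentrations for 72 h at 37 °C. Viable cells read by CellTiter 96 AQueous (MTS); IC50 = concentration giving 50% of maximal growth inhibition.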

[2] = tested on: NCI-H460 (large cell lung carcinoma) cells; experiment: antiproliferation assay (72 h, CELLTITER 96), NCI-H460; type: cell-based, human; conditions: read-out: NCI-H460 IC50
Procedure, shortened: as §1

[3] = Homo sapiens, NCI-H460, Table 7
[4] = Homo sapiens, NCI-H460, Table 8
[5] = Homo sapiens, NCI-H460, Table 3
[6] = Homo sapiens, NCI-H460, Table 4
[7] = Homo sapiens, NCI-H460, Table 5

IC50 ([1]; Homo sapiens, Table 8): 0.65 µM
IC50 [2, 4]: 0.39 µM
Structure (SMILES): C=CC[C@H]1C[C@]2([C@@H](C)Cc3ccc4c(c3)OCO4)OCOC2=CC1=O [Compound 83, (6S,7aR)-6-allyl-7a-((S)-1-(benzo[d][1,3]dioxol-5-yl)propan-2-yl)-7,7a-dihydrobenzo[d][1,3]dioxol-5(6H)-one]

IC50 ([1]; Homo sapiens, Table 8): > 20 µM
IC50 [2, 4]: 2.6 µM
Structure (SMILES): C=CC[C@H]1C[C@]2([C@H](C)Cc3ccc(OC)c4occc34)OCOC2=CC1=O [Compound 84, (6S,7aR)-6-allyl-7a-((R)-1-(7-methoxybenzofuran-4-yl)propan-2-yl)-7,7a-dihydrobenzo[d][1,3]dioxol-5(6H)-one]

IC50 ([1]; Homo sapiens, Table 8): 4.2 µM
IC50 [2, 4]: 4.6 µM
Structure (SMILES): C=CC[C@H]1C[C@]2(C(C)Cc3ccc(OC)c(OC)c3)OCOC2=C(C)C1=O (stereo partly drawn) [Compound 88, (6S,7aR)-6-allyl-7a-(1-(3,4-dimethoxyphenyl)propan-2-yl)-4-methyl-7,7a-dihydrobenzo[d][1,3]dioxol-5(6H)-one]

IC50 ([1]; Homo sapiens, Table 8): > 20 µM
IC50 [2, 4]: 6.9 µM
Structure (SMILES): C=CC[C@H]1C[C@]2([C@H](C)Cc3cc(F)c(OC)cc3F)O[C@H](C)OC2=CC1=O [Compound 89, (2R,6S,7aR)-6-allyl-7a-((R)-1-(2,5-difluoro-4-methoxyphenyl)propan-2-yl)-2-methyl-7,7a-dihydrobenzo[d][1,3]dioxol-5(6H)-one]

IC50 ([1]; Homo sapiens, Table 7): 7 µM
IC50 [2, 3]: 8 µM
Structure (SMILES): COc1ccc(C[C@H](C)[C@]23C[C@H](CC=C(C)C)C(=O)C=C2OCO3)cc1OC [Compound 90]

IC50 ([1]; Homo sapiens, Table 3): > 20 µM
IC50 [2, 5]: > 20 µM
Structure (SMILES): C=CC[C@H]1C[C@]2([C@@H](C)Cc3cc(-c4ccccc4)c(OC)cc3F)OCOC2=CC1=O [Compound 91, (6S,7aR)-6-allyl-7a-((S)-1-(4-fluoro-6-methoxy-[1,1′-biphenyl]-3-yl)propan-2-yl)-7,7a-dihydrobenzo[d][1,3]dioxol-5(6H)-one]

IC50 ([1]; Homo sapiens, Table 3): > 20 µM
IC50 [2, 5]: > 20 µM
Structure (SMILES): C=CC[C@H]1C[C@]2(C(C)Cc3cc(C(=O)O)c(OC)cc3F)OCOC2=CC1=O (stereo partly drawn) [Compound 92, 5-(2-((3aR,5S)-5-allyl-6-oxo-3a,4,5,6-tetrahydrobenzo[d][1,3]dioxol-3a-yl)propyl)-4-fluoro-2-methoxybenzoic acid]

IC50 ([1]; Homo sapiens, Table 3): > 20 µM
IC50 [2, 5]: > 20 µM
Structure (SMILES): C=CC[C@H]1C[C@]2([C@H](C)Cc3cc(C(=O)N(C)C)c(OC)cc3F)OCOC2=CC1=O [Compound 93, 5-((R)-2-((3aR,5S)-5-allyl-6-oxo-3a,4,5,6-tetrahydrobenzo[d][1,3]dioxol-3a-yl)propyl)-4-fluoro-2-methoxy-N,N-dimethylbenzamide]

IC50 ([1]; Homo sapiens, Table 4): > 20 µM
IC50 [2, 6]: > 20 µM
Structure (SMILES): C=CCC1C[C@]2([C@@H](C)Cc3ccc(OC)c(C(C)=O)c3)OCOC2=CC1=O (stereo partly drawn) [Compound 96, (7aR)-7a-((S)-1-(3-acetyl-4-methoxyphenyl)propan-2-yl)-6-allyl-7,7a-dihydrobenzo[d][1,3]dioxol-5(6H)-one]

IC50 ([1]; Homo sapiens, Table 5): > 20 µM
IC50 [2, 7]: > 20 µM
Structure (SMILES): C=CC[C@H]1C[C@]2([C@H](C)Cc3ccc(OCCOC)c(F)c3)OCOC2=CC1=O [Compound 101, (6S,7aR)-6-allyl-7a-((R)-1-(3-fluoro-4-(2-methoxyethoxy)phenyl)propan-2-yl)-7,7a-dihydrobenzo[d][1,3]dioxol-5(6H)-one]

IC50 ([1]; Homo sapiens, Table 5): > 20 µM
IC50 [2, 7]: > 20 µM
Structure (SMILES): C=CC[C@H]1C[C@]2([C@@H](C)Cc3ccc(N(C)C(C)=O)cc3)OCOC2=CC1=O [Compound 103, N-(4-((S)-2-((3aR,5S)-5-allyl-6-oxo-3a,4,5,6-tetrahydrobenzo[d][1,3]dioxol-3a-yl)propyl)phenyl)-N-methylacetamide]

IC50 ([1]; Homo sapiens, Table 7): > 20 µM
IC50 [2, 3]: > 20 µM
Structure (SMILES): COc1cc(F)c(C[C@H](C)[C@]23CCC(=O)C=C2OCO3)cc1O [Compound 104, (R)-7a-((S)-1-(2-fluoro-5-hydroxy-4-methoxyphenyl)propan-2-yl)-7,7a-dihydrobenzo[d][1,3]dioxol-5(6H)-one]

The next lines start with the compound.

Structure (SMILES): C=C(C)C[C@H]1C[C@]2([C@@H](C)Cc3cc(O)c(OC)cc3F)OCOC2=CC1=O [Compound 80, (6S,7aR)-7a-((S)-1-(2-fluoro-5-hydroxy-4-methoxyphenyl)propan-2-yl)-6-(2-methylallyl)-7,7a-dihydrobenzo[d][1,3]dioxol-5(6H)-one]
IC50 ([1]; Homo sapiens, Table 7): 0.22 µM
IC50 [2, 3]: 0.37 µM

Structure (SMILES): C=CC[C@H]1C[C@]2([C@@H](C)Cc3cc(F)c(OC)cc3F)O[C@H](C)OC2=CC1=O [Compound 82, (2R,6S,7aR)-6-allyl-7a-((S)-1-(2,5-difluoro-4-methoxyphenyl)propan-2-yl)-2-methyl-7,7a-dihydrobenzo[d][1,3]dioxol-5(6H)-one]
IC50 ([1]; Homo sapiens, Table 8): > 20 µM
IC50 [2, 4]: 5.2 µM

Structure (SMILES): C=CC[C@H]1C[C@]2([C@@H](C)Cc3ccc(OC)c4occc34)OCOC2=CC1=O [Compound 85, (6S,7aR)-6-allyl-7a-((S)-1-(7-methoxybenzofuran-4-yl)propan-2-yl)-7,7a-dihydrobenzo[d][1,3]dioxol-5(6H)-one]
IC50 ([1]; Homo sapiens, Table 8): 0.63 µM
IC50 [2, 4]: 0.73 µM

Structure (SMILES): C=CC[C@H]1C[C@]2([C@@H](C)Cc3ccc(OC)nc3)OCOC2=CC1=O [Compound 86, (6S,7aR)-6-allyl-7a-((S)-1-(6-methoxypyridin-3-yl)propan-2-yl)-7,7a-dihydrobenzo[d][1,3]dioxol-5(6H)-one]
IC50 ([1]; Homo sapiens, Table 8): 0.18 µM
IC50 [2, 4]: 0.33 µM

Structure (SMILES): C=CC[C@H]1C[C@]2([C@@H](CC)Cc3ccc(OC)c(OC)c3)OCOC2=CC1=O [Compound 87, (6S,7aR)-6-allyl-7a-(1-(3,4-dimethoxyphenyl)butan-2-yl)-7,7a-dihydrobenzo[d][1,3]dioxol-5(6H)-one]
IC50 ([1]; Homo sapiens, Table 8): 2.6 µM
IC50 [2, 4]: 11 µM

Structure (SMILES): C=CC[C@H]1C[C@]2([C@@H](C)Cc3cc(C(=O)N(C)C)c(OC)cc3F)OCOC2=CC1=O [Compound 94, 5-((S)-2-((3aR,5S)-5-allyl-6-oxo-3a,4,5,6-tetrahydrobenzo[d][1,3]dioxol-3a-yl)propyl)-4-fluoro-2-methoxy-N,N-dimethylbenzamide]
IC50 ([1]; Homo sapiens, Table 3): > 20 µM
IC50 [2, 5]: > 20 µM

Structure (SMILES): C=CC[C@H]1C[C@]2([C@@H](C)Cc3cc(-c4nnn[nH]4)c(OC)cc3F)OCOC2=CC1=O [Compound 95, (6S,7aR)-6-allyl-7a-((S)-1-(2-fluoro-4-methoxy-5-(1H-tetrazol-5-yl)phenyl)propan-2-yl)-7,7a-dihydrobenzo[d][1,3]dioxol-5(6H)-one]
IC50 ([1]; Homo sapiens, Table 3): > 20 µM
IC50 [2, 5]: > 20 µM

Structure (SMILES): C=CC[C@H]1C[C@]2([C@H](C)Cc3ccc(OC)c(N(C)C)c3)OCOC2=CC1=O [Compound 97, (6S,7aR)-6-allyl-7a-((R)-1-(3-(dimethylamino)-4-methoxyphenyl)propan-2-yl)-7,7a-dihydrobenzo[d][1,3]dioxol-5(6H)-one]
IC50 ([1]; Homo sapiens, Table 4): > 20 µM
IC50 [2, 6]: > 20 µM

Structure (SMILES): C=CC[C@H]1C[C@]2([C@@H](C)Cc3ccc(O)cc3)OCOC2=CC1=O [Compound 99, (6S,7aR)-6-allyl-7a-((S)-1-(4-hydroxyphenyl)propan-2-yl)-7,7a-dihydrobenzo[d][1,3]dioxol-5(6H)-one]
IC50 ([1]; Homo sapiens, Table 5): > 20 µM
IC50 [2, 7]: > 20 µM

Structure (SMILES): C=CC[C@H]1C[C@]2([C@@H](C)Cc3ccc(OC(C)=O)cc3)OCOC2=CC1=O [Compound 100, 4-((S)-2-((3aR,5S)-5-allyl-6-oxo-3a,4,5,6-tetrahydrobenzo[d]dioxol-3a-yl)propyl)phenyl acetate]
IC50 ([1]; Homo sapiens, Table 5): > 20 µM
IC50 [2, 7]: > 20 µM

Structure (SMILES): C=CC[C@H]1C[C@]2([C@@H](C)Cc3ccc(NC(C)=O)c(F)c3)OCOC2=CC1=O [Compound 102, N-(4-((S)-2-((3aR,55)-5-allyl-6-oxo-3a,4,5,6-tetrahydrobenzo[d][1,3]dioxol-3a-yl)propyl)-2-fluorophenyl)acetamide]
IC50 ([1]; Table 5): > 20 µM
IC50 ([2]; Table 5): > 20 µM

— patent US9562031B1, “Phenethyldihydrobenzodioxolones and methods of use” (Sequoia Sciences, Inc., priority 2015, dated 2017)
